Where a SMILES comes first, the peptide text is derived from it. Bridges are numbered along the chain shown (N, C = ends).
Tests used:
RNAIII transcription [1] = assay: RNAIII transcription activation/inhibition assay (Ji et al. 1995), strain RN6390B; type: cell-based; conditions: purified peptide; S. aureus strain RN6390B; Figure 3
Description: (§1) The purified activator peptide was then analyzed for its ability activate and inhibit RNAIII transcription of S. aureus strains RN6390B, RN6607 and RN8463, as described in Ji, G., et al. PNAS USA 92:12055-12059 (1995).
(§2) The purified peptide were then analyzed for their ability activate and inhibit RNAIII transcription of S. aureus strains RN6390B, RN6607 and RN8463, as described in Ji, G., et al. PNAS USA 92:12055-12059 (1995).

RNAIII transcription [2] = assay: RNAIII transcription activation/inhibition assay (Ji et al. 1995), strain RN6607; type: cell-based; conditions: purified peptide; S. aureus strain RN6607; Figure 3
Description: as §1, §2

RNAIII transcription [3] = assay: RNAIII transcription activation/inhibition assay (Ji et al. 1995), strain RN8463; type: cell-based; conditions: purified peptide; S. aureus strain RN8463; Figure 3
Description: as §1, §2

agr locus = conditions: PNAS 92:12055-12059 (1995); cited from earlier work
RNAIII transcription [4] = assay: Effect of S. lugdunensis pheromone on RNAIII transcription of various S. aureus strains (Northern blot); type: cell-based; conditions: 37°C for 30 minutes; strains grown to 60 Klett units for inhibition assays; Figures 4A and 4B
Description: The purified S. lugdunensis pheromone was then analyzed for its ability activate and inhibit RNAIII transcription of various S. aureus strains. S. aureus strains were grown to 30 Klett units (for activation assays) and to 60 Klett units (for inhibition assays). The purified S . lugdunensis pheromone was added and the mixtures were incubated at 37°C for 30 minutes. Whole cell lysates were prepared from these cultures and analyzed by Northern blot hybridization using a RN6390B RNAIII-specific probe.

Compound	effect on RNAIII transcription (RNAIII transcription [1])	effect on RNAIII transcription (RNAIII transcription [2])	effect on RNAIII transcription (RNAIII transcription [3])	expression of the agr locus (agr locus)	S. aureus strains tested in which the agr response is inhibited (RNAIII transcription [4])
CC[C@H](C)[C@H](NC(=O)[C@@H](N)Cc1ccc(O)cc1)C(=O)N[C@@H](CC(N)=O)C(=O)N[C@H]1CSC(=O)[C@H](CC(C)C)NC(=O)[C@H](CC(C)C)NC(=O)[C@H](Cc2ccccc2)NC(=O)[C@H](CC(=O)O)NC1=O [peptide from RN8463, Tyr-Ile-Asn-Cys-Asp-Phe-Leu-Leu] (H-YINCDFLL; thioester 4-C)	inhibitor effect	inhibitor effect	activator effect	–	–
CC[C@H](C)[C@@H]1NC(=O)[C@H](Cc2ccccc2)NC(=O)[C@H](CC(=O)O)NC(=O)[C@@H](NC(=O)[C@@H](NC(=O)[C@H](CO)NC(=O)[C@@H](N)Cc2ccc(O)cc2)[C@@H](C)O)CSC(=O)[C@H](CCSC)NC1=O [activator peptide, Tyr-Ser-Thr-Cys-Asp-Phe-Ile-Met] (H-YSTCDFIM; thioester 4-C)	activator effect	inhibitor effect	inhibitor effect	activate	–
CC(C)C[C@@H]1NC(=O)[C@H](CO)NC(=O)[C@H](CO)NC(=O)[C@@H](NC(=O)[C@H](C)NC(=O)[C@H](CC(N)=O)NC(=O)[C@@H](NC(=O)CN)C(C)C)CSC(=O)[C@H](Cc2ccccc2)NC1=O [peptide from RN6607, Gly-Val-Asn-Ala-Cys-Ser-Ser-Leu-Phe] (H-GVNACSSLF; thioester 5-C)	inhibitor effect	activator effect	inhibitor effect	–	–
CC[C@H](C)[C@H](NC(=O)[C@@H](N)CC(=O)O)C(=O)N[C@H]1CSC(=O)[C@H](Cc2ccccc2)NC(=O)[C@H](Cc2ccc(O)cc2)NC(=O)[C@H](C)NC(=O)[C@H](CC(N)=O)NC1=O [S. lugdunensis pheromone, Asp-Ile-Cys-Asn-Ala-Tyr-Phe] (H-DICNAYF; thioester 3-C)	–	–	–	–	5 of 6

From patent publication EP0932613B1, “BLOCKING EXPRESSION OF VIRULENCE FACTORS IN S. AUREUS” (NEW YORK UNIVERSITY, priority 1996, dated 2005)
